Laboratory results: US10344024B2, “Compounds as ROR gamma modulators” (Glenmark Pharmaceuticals S.A., priority 2015, dated 2019)

Target: T1, GST-tagged ROR gamma ligand binding domain (LBD) (Homo sapiens, UniProt P51449)
T1 construct: purchased Invitrogen
T1 sequence (P51449 269-508 limits assumed): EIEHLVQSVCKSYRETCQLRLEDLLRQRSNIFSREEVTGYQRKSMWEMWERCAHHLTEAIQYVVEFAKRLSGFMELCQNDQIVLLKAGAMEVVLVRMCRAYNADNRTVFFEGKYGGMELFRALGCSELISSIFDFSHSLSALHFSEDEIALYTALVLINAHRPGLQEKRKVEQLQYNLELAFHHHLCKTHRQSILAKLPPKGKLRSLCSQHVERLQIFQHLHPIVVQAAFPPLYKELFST
Experiment: TR-FRET assay for ROR gamma (LanthaScreen co-activator peptide recruitment)
Format: biochemical
Settings: for inhibition at 1 µM: compound concentration 1 μM; for inhibition at 1 µM / inhibition at 10 µM: TR-FRET ratio 520/495, percent of control; for inhibition at 10 µM: compound concentration 10 μM; for IC50: from dose response curve, nonlinear regression, read-out: IC50 range
Description: The compounds described herein were screened for ROR gamma modulator activity using the TR-FRET assay (LanthaScreen™ available from Invitrogen of Carlsbad, Calif.) as described in JBC 2011, 286, 26: 22707-10; and Drug Metabolism and Disposition 2009, 37, 10: 2069-78.
Binding of the co-activator peptide, causes an increase in the TR-FRET signal while binding of an antagonist decreases the recruitment of the co-activator peptide, causing a decrease in the TR-FRET signal compared to control with no compound. The assay was performed using a two-step procedure, pre-incubation step with the compound followed by the detection step on addition of the anti-GST tagged terbium (Tb) and fluorescein tagged fluorophores as the acceptor.
Test compounds or reference compounds such as T0901317 (Calbiochem) were dissolved in dimethylsulfoxide (DMSO) to prepare 10.0 mM stock solutions and diluted to the desired concentration. The final concentration of DMSO in the reaction was 4% (v/v). The assay mixture was prepared by mixing 10 nM of the GST-tagged ROR gamma ligand binding domain (LBD) in the assay buffer containing 25 mM HEPES (pH 7.4), 100 mM NaCl, 5 mM DTT and 0.01% BSA with or without the desired concentration of the compound. The reaction was incubated at 22° C. for 1 hour. The pre-incubation step was terminated by addition of the detection mixture containing 300 nM Fluorescein-D22 co-activator peptide and 10 nM lantha screen Tb-anti GST antibody into the reaction mixture.
After shaking for 5 minutes the reaction was further incubated for 1 hour at room temperature and read at 4° C. on an Infinite F500 reader as per the kit instructions (Invitrogen). The inhibition of test compound was calculated based on the TR-FRET ratio of 520/495. The activity was calculated as a percent of control reaction. IC50 values were calculated from dose response curve by nonlinear regression analysis using GraphPad Prism software.

SMILES | inhibition at 1 µM [%] | inhibition at 10 µM [%] | IC50 [nM]
CC(O)C(F)(F)c1ccc(CC(=O)Nc2ccc(-c3nccnc3-c3ccc(F)cc3)cc2)cc1 (centres unmarked) [Example 8, 2-(4-(1,1-Difluoro-2-hydroxypropyl)phenyl)-N-(4-(3-(4-fluorophenyl)pyrazin-2-yl)phenyl)acetamide] | 73.6 | 85.3 | 100 to 500
CC(O)C(F)(F)c1ccc(CC(=O)Nc2ccc(-c3nccnc3O[C@@H](C)c3ccccc3Cl)cc2)cc1 (stereo partly drawn) [Example 86, N-(4-(3-((S)-1-(2-Chlorophenyl)ethoxy)pyrazin-2-yl)phenyl)-2-(4-(1,1-difluoro-2-hydroxypropyl)phenyl)acetamide] | 84.5 | 86 | 50 to 100
CCC(F)(F)c1ccc(CC(=O)Nc2ccc(-c3nccnc3N(C)c3ccc(Cl)cc3)cc2)cc1 [Example 55, N-(4-(3-((4-Chlorophenyl)(methyl)amino)pyrazin-2-yl)phenyl)-2-(4-(1,1-difluoropropyl)phenyl)acetamide] | 56.5 | 64.6 | –
Cc1ccc([C@H](C)Nc2nccnc2-c2ccc(NC(=O)Cc3ccc(C(F)(F)C(C)O)cc3)cc2)c(C)c1 (stereo partly drawn) [Example 95, 2-(4-(1,1-Difluoro-2-hydroxypropyl)phenyl)-N-(4-(3-(((S)-1-(2,4-dimethylphenyl)ethyl)amino)pyrazin-2-yl)phenyl)acetamide] | 93.7 | 95.4 | < 50
CCC(F)(F)c1ccc(CC(=O)Nc2ccc(-c3nccnc3-c3ccc(C)cc3C)cc2)cc1 [Example 47, 2-(4-(1,1-Difluoropropyl)phenyl)-N-(4-(3-(2,4-dimethylphenyl)pyrazin-2-yl)phenyl)acetamide] | 82.3 | 82.3 | < 50
CCC(F)(F)c1ccc(CC(=O)Nc2ccc(-c3nccnc3O[C@H](C)c3ccccc3)cc2)cc1 [Example 79, (R)-2-(4-(1,1-Difluoropropyl)phenyl)-N-(4-(3-(1-phenylethoxy)pyrazin-2-yl)phenyl)acetamide] | 69.5 | 85.8 | 100 to 500
CCc1ccccc1-c1nccnc1-c1ccc(NC(=O)Cc2ccc(C(F)(F)[C@H](C)O)cc2)cc1 [Example 52, (S)-2-(4-(1,1-difluoro-2-hydroxypropyl)phenyl)-N-(4-(3-(2-ethylphenyl)pyrazin-2-yl)phenyl)acetamide] | 78.6 | 84 | < 50
CC(O)C(F)(F)c1ccc(CC(=O)Nc2ccc(-c3nccnc3N[C@@H](C)c3ccccc3Cl)cc2F)cc1 (stereo partly drawn) [Example 73, N-(4-(3-(((S)-1-(2-Chlorophenyl)ethyl)amino)pyrazin-2-yl)-2-fluorophenyl)-2-(4-(1,1-difluoro-2-hydroxypropyl)phenyl)acetamide] | 78.5 | 89.2 | 100 to 500
CCC(F)(F)c1ccc(CC(=O)Nc2ccc(-c3nccnc3-c3ccc(C)cc3F)cc2)cc1 [Example 48, 2-(4-(1,1-Difluoropropyl)phenyl)-N-(4-(3-(2-fluoro-4-methylphenyl)pyrazin-2-yl)phenyl)acetamide] | 79.2 | 84.1 | < 50
CCC(F)(F)c1ccc(CC(=O)Nc2ccc(-c3nccnc3NCc3ccccc3)cc2)cc1 [Example 57, N-(4-(3-(Benzylamino)pyrazin-2-yl)phenyl)-2-(4-(1,1-difluoropropyl)phenyl)acetamide] | 69.4 | 85.2 | –
CCC(F)(F)c1ccc(CC(=O)Nc2ccc(-c3nccnc3-c3ccc(C#N)cc3)cc2)cc1 [Example 16, N-(4-(3-(4-Cyanophenyl)pyrazin-2-yl)phenyl)-2-(4-(1,1-difluoropropyl)phenyl)acetamide] | 69.9 | 60.5 | –
CCC(F)(F)c1ccc(CC(=O)Nc2ccc(-c3nccnc3OCc3ccc(F)cc3Cl)cc2)cc1 [Example 77, N-(4-(3-((2-Chloro-4-fluorobenzyl)oxy)pyrazin-2-yl)phenyl)-2-(4-(1,1-difluoropropyl)phenyl)acetamide] | 80.5 | 73.7 | < 50
CCC(F)(F)c1ccc(CC(=O)Nc2ccc(-c3nccnc3-c3ccc(OC)cc3)cc2)cc1 [Example 27, 2-(4-(1,1-Difluoropropyl)phenyl)-N-(4-(3-(4-methoxyphenyl)pyrazin-2-yl)phenyl)acetamide] | 78.6 | 83.5 | < 50
CCC(F)(F)c1ccc(CC(=O)Nc2ccc(-c3ncccc3-c3ccc(F)cc3)cc2)cc1 [Example 14, 2-(4-(1,1-Difluoropropyl)phenyl)-N-(4-(3-(4-fluorophenyl)pyridin-2-yl)phenyl)acetamide] | 74.4 | 83.8 | 100 to 500
CCc1ccccc1-c1nccnc1-c1ccc(NC(=O)Cc2ccc(C(F)(F)C(C)O)cc2)cc1 (centres unmarked) [Example 40, 2-(4-(1,1-Difluoro-2-hydroxypropyl)phenyl)-N-(4-(3-(2-ethylphenyl)pyrazin-2-yl)phenyl)acetamide] | 71.4 | 76.9 | < 50
CC(O)C(F)(F)c1ccc(CC(=O)Nc2ccc(-c3nccnc3OC3(c4ccccc4)CC3)cc2)cc1 (centres unmarked) [Example 82, 2-(4-(1,1-Difluoro-2-hydroxypropyl)phenyl)-N-(4-(3-(1-phenylcyclopropoxy)pyrazin-2-yl)phenyl)acetamide] | 37.9 | 80.1 | –
CCC(F)(F)c1ccc(CC(=O)Nc2ccc(-c3nccnc3OC(C)c3ccccc3)cc2)cc1 (centres unmarked) [Example 76, 2-(4-(1,1-Difluoropropyl)phenyl)-N-(4-(3-(1-phenylethoxy)pyrazin-2-yl)phenyl)acetamide] | 78.1 | 87.5 | 100 to 500
CC(O)C(F)(F)c1ccc(CC(=O)Nc2ccc(-c3nccnc3NCC3CCCCC3)cc2)cc1 (centres unmarked) [Example 71, N-(4-(3-((Cyclohexylmethyl)amino)pyrazin-2-yl)phenyl)-2-(4-(1,1-difluoro-2-hydroxypropyl)phenyl)acetamide] | 20.5 | 73.7 | –
CC(O)C(F)(F)c1ccc(CC(=O)Nc2ccc(-c3nccnc3N3CCC(F)(F)CC3)cc2)cc1 (centres unmarked) [Example 18, 2-(4-(1,1-Difluoro-2-hydroxypropyl)phenyl)-N-(4-(3-(4,4-difluoropiperidin-1-yl)pyrazin-2-yl)phenyl)acetamide] | 32.4 | 71.2 | –
CCC(F)(F)c1ccc(CC(=O)Nc2ccc(-c3nccnc3-c3ccc(C(F)(F)F)cc3)cc2)cc1 [Example 12, 2-(4-(1,1-Difluoropropyl)phenyl)-N-(4-(3-(4-(trifluoromethyl)phenyl)pyrazin-2-yl)phenyl)acetamide] | 85.6 | 83 | < 50
CCc1ccccc1-c1nccnc1-c1ccc(NC(=O)Cc2ccc(C(F)(F)[C@@H](C)O)cc2)cc1 [Example 53, (R)-2-(4-(1,1-difluoro-2-hydroxypropyl)phenyl)-N-(4-(3-(2-ethylphenyl)pyrazin-2-yl)phenyl)acetamide] | 70.5 | 77 | < 50
CCC(F)(F)c1ccc(CC(=O)Nc2ccc(-c3ncccc3-c3ccccc3Cl)cc2)cc1 [Example 30, N-(4-(3-(2-Chlorophenyl)pyridin-2-yl)phenyl)-2-(4-(1,1-difluoropropyl)phenyl)acetamide] | 81.3 | 82.5 | < 50
Cc1ccc([C@@H](C)Oc2nccnc2-c2ccc(NC(=O)Cc3ccc(C(F)(F)C(C)O)cc3)cc2)c(C)c1 (stereo partly drawn) [Example 98, 2-(4-(1,1-Difluoro-2-hydroxypropyl)phenyl)-N-(4-(3-((R)-1-(2,4-dimethylphenyl)ethoxy)pyrazin-2-yl)phenyl)acetamide] | 89.5 | 89 | < 50
CCC(F)(F)c1ccc(CC(=O)Nc2ccc(-c3nccnc3OCc3c(C)noc3C)cc2)cc1 [Example 89, 2-(4-(1,1-Difluoropropyl)phenyl)-N-(4-(3-((3,5-dimethylisoxazol-4-yl)methoxy)pyrazin-2-yl)phenyl)acetamide] | 58.8 | 74.6 | –
